Patent US20260158056A1, “USE OF LOW MOLECULAR WEIGHT HYALURONIC ACID FOR THE TREATMENT OF LUNG MUCOSAL INFLAMMATION” (INSTITUT NATIONAL DE LA SANTÉ ET DE LA RECHERCHE MÉDICALE, priority 2021, published 2026)

Experiments:
[1] = system: mucin MUC-5B secreted by F508del/F508del CF human airway epithelial cells; assay: MUC-5B ELISA, CF airway epithelial cells cultured at the air-liquid interface (ALI); assay type: cell-based
Experimental: FIG. 8: Measurement by ELISA assay of the mucin MUC-5B secreted by F508del/F508del CF human airway epithelial cells cultured at the air-liquid interface (ALI). Airway epithelial cells were seeded in bi-compartmental chambers and cultured in liquid-liquid condition until confluence was reached. At confluence, culture medium from the upper chamber was removed to create an air-liquid interface (ALI) that will favor epithelial cell differentiation. From the ALI creation, the different treatments (15-45 kDa sodium-hyaluronic acid (HA-Na 15-45 kDa) (ARD—Pomacle—France—as prepared according to WO2004050187), 15-30 kDa sodium-hyaluronic acid (HA-Na 15-30 kDa) (Sigma Aldrich), or 30-50 kDa sodium-hyaluronic acid (HA-Na 30-50 kDa) (Sigma Aldrich)) were added at 1 mg/mL to the culture medium in the basal chamber. The culture medium was renewed three times a week. At ALI day 15 and ALI Day 25, the culture in the upper chamber was rinsed with PBS then, a small volume of fresh medium without any treatment was placed at the contact of the apical part of the epithelium. After a 4 h-period, this apical culture medium was collected and the MUC-5B content was determined by ELISA assay. n=3 different F508del/F508del CF patients. p<0.001 (***); p<0.01 (**); p<0.05 (*). ns: non-significant.
FIG. 9: Measurement by ELISA assay of the mucin MUC-5B secreted by F508del/F508del CF human airway epithelial cells cultured at the air-liquid interface (ALI). Airway epithelial cells were seeded in bi-compartmental chambers and cultured in liquid-liquid condition until confluence was reached. At confluence, culture medium from the upper chamber was removed to create an air-liquid interface (ALI) that will favor epithelial cell differentiation. From the ALI creation, the different treatments (15-45 kDa sodium-hyaluronic acid (HA-Na 15-45 kDa) (ARD—Pomacle—France—as prepared according to WO2004050187), 15-45 kDa calcium-hyaluronic acid (HA-Ca 15-45 kDa; ARD), or 15-45 kDa potassium-hyaluronic acid (HA-K 15-45 kDa; ARD) were added at 1 mg/mL to the culture medium in the basal chamber. The culture medium was renewed three times a week. At ALI day 15 and ALI Day 25, the culture in the upper chamber was rinsed with PBS then, a small volume of fresh medium without any treatment was placed at the contact of the apical part of the epithelium. After a 4 h-period, this apical culture medium was collected and the MUC-5B content was determined by ELISA assay. n=3 different F508del/F508del CF patients. p<0.001 (***); p<0.01 (**); p<0.05 (*). ns: non-significant.
FIG. 10: Measurement by ELISA assay of the mucin MUC-5B secreted by F508del/F508del CF human airway epithelial cells cultured at the air-liquid interface (ALI). Airway epithelial cells were seeded in bi-compartmental chambers and cultured in liquid-liquid condition until confluence was reached. At confluence, culture medium from the upper chamber was removed to create an air-liquid interface (ALI) that will favor epithelial cell differentiation. From the ALI creation, 15-45 kDa sodium-hyaluronic acid (HA-Na 15-45 kDa) (ARD—Pomacle—France—as prepared according to WO2004050187) was added at 2 mg/mL, 1 mg/mL or 0.5 mg/mL to the culture medium in the basal chamber. The culture medium was renewed three times a week. At ALI day 15 and ALI Day 25, the culture in the upper chamber was rinsed with PBS then, a small volume of fresh medium without any treatment was placed at the contact of the apical part of the epithelium. After a 4 h-period, this apical culture medium was collected and the MUC-5B content was determined by ELISA assay. n=3 different F508del/F508del CF patients. p<0.001 (***); p<0.01 (**); p<0.05 (*). ns: non-significant.

[2] = system: IL-8 secreted by non-CF human airway epithelial cells; assay: IL-8 ELISA, non-CF airway epithelial cells cultured at the air-liquid interface (ALI); assay type: cell-based; settings: FIG. 11, 14; 1 mg/mL from ALI creation, ALI day 15, vs control condition; n=1 non-CF patient
Experimental: FIG. 11: Measurement by ELISA assay of the pro-inflammatory chemokine IL-8 secreted by non-CF human airway epithelial cells cultured at the air-liquid interface (ALI). Airway epithelial cells were seeded in bi-compartmental chambers and cultured in liquid-liquid condition until confluence was reached. At confluence, culture medium from the upper chamber was removed to create an air-liquid interface (ALI) that will favor epithelial cell differentiation. From the ALI creation, the different treatments (15-45 kDa sodium-hyaluronic acid (HA-Na 15-45 kDa) (ARD—Pomacle—France—as prepared according to WO2004050187), 15-30 kDa sodium-hyaluronic acid (HA-Na 15-30 kDa) (Sigma Aldrich), or 30-50 kDa sodium-hyaluronic acid (HA-Na 30-50 kDa) (Sigma Aldrich)) were added at 1 mg/mL to the culture medium in the basal chamber. The culture medium was renewed three times a week. At ALI day 15, the culture medium was replaced by fresh medium without any treatment. After a 4 h-period, this culture medium was collected and the IL-8 content was determined by ELISA assay. n=1 non-CF patient. p<0.001 (***); p<0.01 (**); p<0.05 (*). ns: non-significant.
FIG. 14: Measurement by ELISA assay of the pro-inflammatory chemokine IL-8 secreted by non-CF human airway epithelial cells cultured at the air-liquid interface (ALI). Airway epithelial cells were seeded in bi-compartmental chambers and cultured in liquid-liquid condition until confluence was reached. At confluence, culture medium from the upper chamber was removed to create an air-liquid interface (ALI) that will favor epithelial cell differentiation. From the ALI creation, the different treatments (15-45 kDa sodium-hyaluronic acid (HA-Na 15-45 kDa) (ARD—Pomacle—France—as prepared according to WO2004050187), 15-45 kDa calcium-hyaluronic acid (HA-Ca 15-45 kDa; ARD) or 15-45 kDa potassium-hyaluronic acid (HA-K 15-45 kDa; ARD) were added at 1 mg/mL to the culture medium in the basal chamber. The culture medium was renewed three times a week. At ALI day 15, the culture medium was replaced by fresh medium without any treatment. After a for 4 h-period, this culture medium was collected and the IL-8 content was determined by ELISA assay. n=1 non-CF patient. p<0.001 (***); p<0.01 (**); p<0.05 (*). ns: non-significant.

[3] = 1 mg/mL, ALI day 15, vs control condition, n=3 CF patients
[4] = 1 mg/mL, ALI day 25, vs control condition, n=3 CF patients

Substance | decrease in MUC-5B secretion [1, 3] | decrease in MUC-5B secretion [1, 4] | decrease in IL-8 secretion [2] | decrease in MUC-5B secretion ([1]; FIG. 10, 0.5 mg/mL, ALI day 15 and ALI day 25) | decrease in MUC-5B secretion ([1]; FIG. 10, 2 mg/mL, ALI day 15) | decrease in MUC-5B secretion ([1]; FIG. 10, 2 mg/mL, ALI day 25)
15-30 kDa sodium-hyaluronic acid [HA-Na 15-30 kDa] | 14.1% | 17.3% | 60.6% |  |  | 
30-50 kDa sodium-hyaluronic acid [HA-Na 30-50 kDa] | 68.7% | 67.1% | 66.6% |  |  | 
15-45 kDa potassium-hyaluronic acid [HA-K 15-45 kDa] | 34.7% |  | 57.9% |  |  | 
15-45 kDa calcium-hyaluronic acid [HA-Ca 15-45 kDa] | 85.5% | 58.8% | 70.5% |  |  | 
15-45 kDa sodium-hyaluronic acid [HA-Na 15-45 kDa] | 37.3% | 33.2% | 69.7% | does not have any effect | 97.9% | 81.2%
